For 19 compounds, IC50 and EC50 results are on record in patent publication US7468375B2 (Pfizer Inc., priority 2004, dated 2008).

Where two headings read alike, the source gives them in different places.

Experiment [1] has as its target T1, Full-length wild type HIV-1 integrase (SF1) (Human immunodeficiency virus type 1 group M subtype B, UniProt P04585).
T1 construct: made in house; host or cells: E. coli BL21 (DE3)
Nature of the experiment: Integrase strand-transfer scintillation proximity assay. The settings on record: strand transfer, 50 min at 37° C., 246 nM integrase, 50 nM host DNA; read-out: IC50. In kind it is biochemical. An excerpt: Integrase Strand-Transfer Scintillation Proximity Assay Oligonucleotides
Oligonucleotide #1-5′-(biotin)[…]-3′ (SEQ ID NO: 1) and oligonucleotide #2-5′-[…]-3′ (SEQ ID NO: 2), were synthesized by TriLink BioTechnologies, Inc. (San Diego, Calif.). The annealed product represents preprocessed viral ds-DNA derived from the LTR U5 sequence of the viral genome. A ds-DNA control to test for non-specific interactions was made using a 3′ di-deoxy derivative of oligonucleotide #1 annealed to oligonucleotide #2. The CA overhang at the 5′ end of the non-biotinylated strand of the ds-DNA was created artificially by using a complimentary DNA oligonucleotide shortened by 2 base pairs. This configuration eliminates the requisite 3′ processing step of the integrase enzyme prior to the strand-transfer mechanism. Host ds-DNA was prepared as an unlabeled and [^3H]-thymidine labeled product from annealed oligonucleotide #3-5-[…]-3′ (SEQ ID NO: 3), and oligonucleotide #4-5′-[…]-3′ (SEQ ID NO: 4), both synthesized by TriLink BioTechnologies, Inc. (San Diego, Calif.). The annealed product had overhanging 3′ ends of poly(dA). Host DNA was custom radiolabeled by PerkinElmer Life Sciences Inc. (Boston, Mass.) using an enzymatic method with a 12/1 ratio of [methyl-3H]dTTP/cold ds-DNA to yield 5′-blunt end ds-DNA with a specific activity of >900 Ci/mmol. The radiolabeled product was purified using a NENSORB cartridge and stored in stabilized aqueous solution (PerkinElmer). The final radiolabeled product had six [^3H]-thymidine nucleotides at both 5′ ends of the host ds-DNA. Reagents: Streptavidin-coated polyvinyltoluene (PVT) SPA beads were purchased from Amersham Biosciences (Piscataway, N.J.). Cesium chloride was purchased from Shelton Scientific, Inc. (Shelton, Conn.). White, polystyrene, flat-bottom, non-binding surface, 96-well plates were purchased from Corning. All other buffer components were purchased from Sigma (St. Louis, Mo.) unless otherwise indicated.
Enzyme Construction: Full-length wild type HIV-1 integrase (SF1) sequence (amino acids 1-288) was constructed in a pET24a vector (Novagen, Madison, Wis.). The construct was confirmed through DNA sequencing. Enzyme Purification: Full length wild-type HIV Integrase was expressed in E. coli BL21 (DE3) cells and induced with 1 mM isopropyl-1 thio-β-D-galactopyranoside (IPTG) when cells reached an optical density between 0.8-1.0 at 600 nm. Cells were lysed by microfluidation in 50 mM HEPES pH 7.0, 75 mM NaCl, 5 mM DTT, 1 mM 4-(2-Aminoethyl)benzenesulfonylfluoride HCl (AEBSF). Lysate was then centrifuged 20 minutes at 11 k rpm in GSA rotor in Sorvall RC-5B at 4° C. Supernant was discarded and pellet resuspended in 50 mM HEPES pH 7.0, 750 mM NaCl, 5 mM DTT, 1 mM AEBSF and homogenized in a 40 mL Dounce homogenizer for 20 minutes on ice. Homogenate was then centrifuged 20 minutes at 11 k rpm in SS34 rotor in Sorvall RC-5B at 4° C. Supernant was discarded and pellet resuspended in 50 mM HEPES pH 7.0, 750 mM NaCl, 25 mM CHAPS, 5 mM DTT, 1 mM AEBSF. Preparation was then centrifuged 20 minutes at 11 k rpm in SS34 rotor in Sorvall RC-5B at 4° C. Supernant was then diluted 1:1 with 50 mM HEPES pH 7.0, 25 mM CHAPS, 1 mM DTT, 1 mM AEBSF and loaded onto a Q-Sepharose column pre-equilibrated with 50 mM HEPES, pH 7.0, 375 mM NaCl, 25 mM CHAPS, 1 mM DTT, 1 mM AEBSF. The flow through peak was collected and NaCl diluted to 0.1 M with 50 mM HEPES pH 7.0, 25 mM CHAPS, 1 mM DTT, 0.5 mM AEBSF and loaded onto a SP-Sepharose column pre-equilibrated with 50 mM HEPES pH 7.0, 100 mM NaCl, 25 mM CHAPS, 1 mM DTT, 0.5 mM AEBSF. After washing the column with the equilibration buffer, a 100 to 400 mM NaCl gradient was run. The eluted integrase was concentrated and run on a S-300 gel diffusion column using 50 mM HEPES pH 7.0, 500 mM NaCl, 25 mM CHAPS, 1 mM DTT, 0.5 mM AEBSF. The peak from this column was concentrated to 0.76 mg/mL and stored at −70° C. and later used for strand transfer assays. […]
(In general: SPA uses beads or plates that emit light when radiolabelled molecules are held near them.)

Experiment [2] relates to RF strain of HIV-1 in CEM-SS cells. As to the kind of experiment: HIV-1 cell protection assay (XTT dye reduction). In kind it is cell-based. Particulars: Human immunodeficiency virus 1, CEM-SS, 144 h. The method, then:
HIV-1 Cell Protection Assay
The antiviral activities of potential modulator compounds (test compounds) were determined in HIV-1 cell protection assays using the RF strain of HIV-1, CEM-SS cells, and the XTT dye reduction method (Weislow, O. S. et al., J. Natl. Cancer Inst. 81: 577-586 (1989)). Subject cells were infected with HIV-1 RF virus at an moi of 0.025 to 0.819 or mock infected with medium only and added at 2×10^4 cells per well into 96 well plates containing half-log dilutions of test compounds. Six days later, 50 μl of XTT solution (1 mg/ml XTT tetrazolium and […] phenazine methosulfate) were added to the wells and the plates were reincubated for four hours. Viability, as determined by the amount of XTT formazan produced, was quantified spectrophotometrically by absorbance at 450 nm. Data from CPE assays were expressed as the percent of formazan produced in compound-treated cells compared to formazan produced in wells of uninfected, compound-free cells. […] The therapeutic index was calculated by dividing the cytotoxicity (CC50) by the antiviral activity (EC50).
Background: Formazan colour is commonly taken as a measure of viable cells.

Setting [3] is: HIV-1 RF, CEM-SS cells, XTT dye reduction, six days, read-out: EC50.

Broadly, the IC50 is the concentration that inhibits the measured activity by half. A word on the EC50: it is the concentration giving half of the maximal effect. As for `C=CCONC(=O)c1cc2c(CN3CCNC(=O)C3)cn(Cc3ccc(F)cc3)c2cn1` [Example 103, N-(Allyloxy)-1-(4-fluorobenzyl)-3-[(3-oxopiperazin-1-yl)methyl]-1H-pyrrolo[2,3-c]pyridine-5-carboxamide], the half-inhibitory concentration (IC50) in experiment [1] was 702 nM. Also, the EC50 in experiment [2] (setting [3]) was 130 nM.

On to `CC(C)C(CO)NCc1cn(Cc2ccc(F)cc2F)c2cnc(C(=O)NO)cc12` (centres unmarked) [Example 78, 1-(2,4-Difluorobenzyl)-N-hydroxy-3-({[1-(hydroxymethyl)-2-methylpropyl]amino}methyl)-1H-pyrrolo[2,3-c]pyridine-5-carboxamide], for which, in experiment [1], the IC50 amounted to 571 nM. The EC50 in experiment [2] (setting [3]) worked out at 83 nM.

On to `CN(Cc1cccnc1)Cc1cn(Cc2ccc(F)cc2F)c2cnc(C(=O)NO)cc12` [Example 8, 1-(2,4-Difluorobenzyl)-N-hydroxy-3-{[methyl(pyridin-3-ylmethyl)amino]methyl}-1H-pyrrolo[2,3-c]pyridine-5-carboxamide], for which the IC50 in experiment [1] was determined as 45 nM. The EC50 in experiment [2] (setting [3]) amounted to 52 nM.

Take `CCCN(O)C(=O)c1cc2ccn(Cc3ccc(F)cc3)c2cn1` [Example 28, 1-(4-Fluorobenzyl)-N-hydroxy-N-propyl-1H-pyrrolo[2,3-c]pyridine-5-carboxamide]: in experiment [1], the IC50 came to 628 nM. For the same compound, in experiment [2] (setting [3]), the EC50 stood at 350 nM.

For the compound `O=C(NO)c1cc2ccn(Cc3ccc(F)cc3F)c2cn1` [Example 1, 1-(2,4-Difluorobenzyl)-N-hydroxy-1H-pyrrolo[2,3-c]pyridine-5-carboxamide], in experiment [1], the IC50 came out at 84 nM. For the same compound, in experiment [2] (setting [3]), the EC50 was 7.95 nM.

For the compound `CCC(CC)NCc1cn(Cc2ccc(F)cc2F)c2cnc(C(=O)NO)cc12` [Example 82, 1-(2,4-Difluorobenzyl)-3-{[(1-ethylpropyl)amino]methyl}-N-hydroxy-1H-pyrrolo[2,3-c]pyridine-5-carboxamide], the IC50 in experiment [1] amounted to 634 nM. Besides, the EC50 in experiment [2] (setting [3]) is 23 nM.

On to `CONC(=O)c1cc2c(CN3CCN(C)CC3)cn(Cc3ccc(F)cc3F)c2cn1` [Example 37, 1-(2,4-Difluorobenzyl)-N-methoxy-3-[(4-methylpiperazin-1-yl)methyl]-1H-pyrrolo[2,3-c]pyridine-5-carboxamide], for which the IC50 in experiment [1] turned out to be 528 nM. Besides, in experiment [2] (setting [3]), the concentration giving a half-maximal response (EC50) stood at 46 nM.

For `O=C(NO)c1cc2ncn(Cc3cccc(F)c3F)c2cn1` [Example 24, 3-(2,3-Difluoro-benzyl)-N-hydroxy-3H-imidazo[4,5-c]pyridine-6-carboxamide], the IC50 in experiment [1] came out at 1040 nM. Further, in experiment [2] (setting [3]), the EC50 was 110 nM.

Consider `O=C(NO)c1cc2c(CNCC(O)c3ccccc3)cn(Cc3ccc(F)cc3F)c2cn1` (centres unmarked) [Example 84, 1-(2,4-Difluorobenzyl)-N-hydroxy-3-{[(2-hydroxy-2-phenylethyl)amino]methyl}-1H-pyrrolo[2,3-c]pyridine-5-carboxamide], for which the IC50 in experiment [1] is 316 nM. In addition, the EC50 in experiment [2] (setting [3]) turned out to be 51 nM.

On to `O=C(CC(NCc1cn(Cc2ccc(F)cc2F)c2cnc(C(=O)NO)cc12)C1CC1)NC1CC1` (centres unmarked) [Example 101, 3-({[1-Cyclopropyl-3-(cyclopropylamino)-3-oxopropyl]amino}methyl)-1-(2,4-difluorobenzyl)-N-hydroxy-1H-pyrrolo[2,3-c]pyridine-5-carboxamide], for which, in experiment [1], the IC50 was found to be 472 nM. In addition, the EC50 in experiment [2] (setting [3]) is 73 nM.

Turning to `CC1CCCN1Cc1cn(Cc2ccc(F)cc2F)c2cnc(C(=O)NO)cc12` (centres unmarked) [Example 81, 1-(2,4-Difluorobenzyl)-N-hydroxy-3-[(2-methylpyrrolidin-1-yl)methyl]-1H-pyrrolo[2,3-c]pyridine-5-carboxamide], the IC50 in experiment [1] is 499 nM. Further, the EC50 in experiment [2] (setting [3]) worked out at 40 nM.

Turning to `CC1C(=O)NCCN1Cc1cn(Cc2ccc(F)cc2)c2cnc(C(=O)N(C)O)cc12` (centres unmarked) [Example 33, 1-(4-Fluorobenzyl)-N-hydroxy-N-methyl-3-[(2-methyl-3-oxopiperazin-1-yl)methyl]-1H-pyrrolo[2,3-c]pyridine-5-carboxamide], the IC50 in experiment [1] is 463 nM. In addition, the EC50 in experiment [2] (setting [3]) turned out to be 210 nM.

For the compound `O=C(NO)c1cc2c(CN3CCS(=O)(=O)CC3)cn(Cc3ccc(F)cc3F)c2cn1` [Example 9, 1-(2,4-Difluorobenzyl)-3-[(1,1-dioxidothiomorpholin-4-yl)methyl]-N-hydroxy-1H-pyrrolo[2,3-c]pyridine-5-carboxamide], the IC50 in experiment [1] turned out to be 20 nM. For the same compound, in experiment [2] (setting [3]), the EC50 was 7.4 nM.

For `CCCN(CCO)Cc1cn(Cc2ccc(F)cc2)c2cnc(C(=O)NOCC)cc12` [Example 115, N-ethoxy-1-(4-fluorobenzyl)-3-{[(2-hydroxyethyl)(propyl)amino]methyl}-1H-pyrrolo[2,3-c]pyridine-5-carboxamide], the EC50 in experiment [2] (setting [3]) is 3700 nM.

For `O=C(NO)c1cc2cnn(Cc3ccc(F)cc3)c2cn1` [Example 35, 1-(4-Fluorobenzyl)-N-hydroxy-1H-pyrazolo[3,4-c]pyridine-5-carboxamide], the IC50 in experiment [1] was found to be 446 nM.

On to `C=Cc1c(C(=O)NO)ncc2c1ccn2Cc1ccc(F)cc1` [Example 39, 1-(4-Fluorobenzyl)-N-hydroxy-4-vinyl-1H-pyrrolo[2,3-c]pyridine-5-carboxamide], for which, in experiment [2] (setting [3]), the EC50 turned out to be 3.05 nM.

Consider `COCc1cn(Cc2ccc(F)cc2)c2cnc(C(=O)N(C)O)cc12` [Example 122, 1-(4-Fluorobenzyl)-AN-hydroxy-3-(methoxymethyl)-N-methyl-1H-pyrrolo[2,3-c]pyridine-5-carboxamide], for which it took 242 nM to reach a half-maximal effect in experiment [2] (EC50).

`CCONC(=O)c1cc2c(CN(C)CCCN(C)C)cn(Cc3ccc(F)cc3)c2cn1` [Example 116, 3-{[[3-(Dimethylamino)propyl](methyl)amino]methyl}-N-ethoxy-1-(4-fluorobenzyl)-1H-pyrrolo[2,3-c]pyridine-5-carboxamide]: the EC50 in experiment [2] (setting [3]) worked out at 3900 nM.

For `CCOCCOCc1cn(Cc2ccc(F)cc2)c2cnc(C(=O)NOC)cc12` [Example 121, 3-[(2-Ethoxyethoxy)methyl]-1-(4-fluorobenzyl)-N-methoxy-1H-pyrrolo[2,3-c]pyridine-5-carboxamide], the EC50 in experiment [2] (setting [3]) is 512 nM.
